Source: US20170368082A1, “FORMULATIONS OF BRINCIDOFOVIR” (priority 2016, published 2017)
Several values for one entry are separate records, joined by “and”; a condition that tells them apart may be missing. Equal values may be shown once.

Assay: Phase 2 toxicokinetics of brincidofovir and cidofovir in plasma
Assay type: in vivo, Sprague-Dawley CD rats
Design: Imputed Concentration, Mean: unit: ng/mL
Details: plasma; for C (Concentration), individual animals: 15 mg/kg; for Imputed Concentration, individual animals / Imputed Concentration, Mean: BLQ imputed as zero
Experimental: Plasma samples (108) were collected 2 hours following the initiation of dosing on Day 1 and Day 7 (Group 1), or at 1, 2, 8, and 24 hours following the initiation of dosing on Day 1, and prior to administration and at 2, 8, and 24 hours following the initiation of dosing on Day 7 (Groups 2 and 3), and analyzed to determine the concentrations of brincidofovir and the metabolite, cidofovir), by LC/MS/MS.
Approximately 0.4 mL of whole blood was obtained via the tail vein from each animal at each time point. Animals were not fasted prior to blood collection. Blood was collected into tubes containing K2EDTA anticoagulant and placed on wet ice in an upright position, per facility SOP prior to processing. Plasma was separated by centrifugation (10 minutes at approximately 2000 g, at approximately 2-8° C.). Approximately 0.10 mL of plasma was transferred into a single cryotube appropriately labeled with study number, animal number, time point, date of sampling and sample type. Remaining plasma was transferred into a second cryotube and retained as a backup sample. Plasma frozen at approximately −80±10° C. within approximately 2 hours after collection of each blood sample until analysis. Animals were euthanized (CO2 inhalation) after the final blood collection.
In general, TK parameters were estimated using mean plasma concentrations of brincidofovir and cidofovir derived from the composite blood sampling design using Phoenix WinNonLin (V 6.3).
A composite blood sampling design was used such that each rat was sampled twice per sampling day. Blood was collected via tail vein from unanesthetized animals into tubes containing anticoagulant and placed on wet ice in an upright position. Animals were not fasted prior to blood collection. Plasma was separated by centrifugation (for 10 minutes at approximately 2000 g, at approximately 2-8° C.), and transferred into individually labeled cryotubes. All cryotubes containing the collected plasma samples were appropriately labeled as to study number, animal number, time point, date of sampling and sample type. All plasma samples were obtained and frozen at approximately −80° C. (±10° C.) within approximately 2 hours after collection of each blood sample until analysis.
Rat plasma bioanalysis was conducted by Pyxant Laboratories. Plasma samples were analyzed for concentrations of brincidofovir and cidofovir using a method based upon protein precipitation extraction followed by LC-MS/MS analysis; calibration ranges for brincidofovir and cidofovir were 1.00-1500 ng/mL and 5.00-750 ng/mL, respectively, (Pyxant study number 3025) for a 50 μL aliquot of rat plasma. Sample analysis for ISR was not performed as part of this non-GLP study.
For the generation of Mean Profiles, all sample concentrations that were below the limit of quantitation (BLQ) were set to 0.
All pharmacokinetic parameter estimates were completed using a Non-Compartmental Model (Model 200-202 for IV infusion administration). The AUClast and AUCinf were calculated using the linear up log down trapezoidal rule.

[1] = brincidofovir 1 mg/kg 2-h IV infusion, female rats, Day 7, 0 h
[2] = brincidofovir 1 mg/kg 2-h IV infusion, female rats, Day 7, 24 h
[3] = brincidofovir 1 mg/kg 2-h IV infusion, male rats, Day 7, 8 h
[4] = brincidofovir 1 mg/kg 2-h IV infusion, male rats, Day 7, 24 h
[5] = brincidofovir 15 mg/kg 2-h IV infusion, female rats, Day 7, 0 h
[6] = brincidofovir 15 mg/kg 2-h IV infusion, male rats, Day 7, 0 h

CCCCCCCCCCCCCCCCOCCCOP(=O)(O)CO[C@H](CO)Cn1ccc(N)nc1=O [Brincidofovir]
C (Concentration), individual animals (female rats, Day 7, 24 h, listed as BCV): BLQ | C (Concentration), individual animals (male rats, Day 7, 0 h): BLQ | Imputed Concentration, individual animals (brincidofovir 1 mg/kg 2-h IV infusion, female rats, Day 1, 1 h, listed as BCV): 126 ng/mL and 177 ng/mL | Imputed Concentration, individual animals (brincidofovir 1 mg/kg 2-h IV infusion, female rats, Day 1, 2 h, listed as BCV): 164 ng/mL and 155 ng/mL | Imputed Concentration, individual animals (brincidofovir 1 mg/kg 2-h IV infusion, female rats, Day 1, 8 h, listed as BCV): 2.30 ng/mL and 1.45 ng/mL and 0.00 ng/mL | Imputed Concentration, individual animals (brincidofovir 1 mg/kg 2-h IV infusion, female rats, Day 1, 24 h): 0.00 ng/mL | Imputed Concentration, Mean [1]: 0.00 ng/mL | Imputed Concentration, individual animals [1]: 0.00 ng/mL | Imputed Concentration, Mean (brincidofovir 1 mg/kg 2-h IV infusion, female rats, Day 7, 2 h): 95.4 ng/mL | Imputed Concentration, individual animals (brincidofovir 1 mg/kg 2-h IV infusion, female rats, Day 7, 2 h, listed as BCV): 115 ng/mL and 82.1 ng/mL and 89.2 ng/mL | Imputed Concentration, Mean (brincidofovir 1 mg/kg 2-h IV infusion, female rats, Day 7, 8 h): 2.19 ng/mL | Imputed Concentration, individual animals (brincidofovir 1 mg/kg 2-h IV infusion, female rats, Day 7, 8 h, listed as BCV): 6.58 ng/mL and 0.00 ng/mL (2×) | Imputed Concentration, Mean [2]: 0.00 ng/mL | Imputed Concentration, individual animals [2]: 0.00 ng/mL | Imputed Concentration, individual animals (brincidofovir 1 mg/kg 2-h IV infusion, male rats, Day 1, 1 h, listed as BCV): 244 ng/mL and 280 ng/mL | Imputed Concentration, individual animals (brincidofovir 1 mg/kg 2-h IV infusion, male rats, Day 1, 2 h, listed as BCV): 283 ng/mL and 203 ng/mL | Imputed Concentration, individual animals (brincidofovir 1 mg/kg 2-h IV infusion, male rats, Day 1, 8 h): 0.00 ng/mL | Imputed Concentration, individual animals (brincidofovir 1 mg/kg 2-h IV infusion, male rats, Day 1, 24 h): 0.00 ng/mL | Imputed Concentration, individual animals (brincidofovir 1 mg/kg 2-h IV infusion, male rats, Day 7, 0 h): 0.00 ng/mL | Imputed Concentration, Mean (brincidofovir 1 mg/kg 2-h IV infusion, male rats, Day 7, 2 h): 208 ng/mL | Imputed Concentration, individual animals (brincidofovir 1 mg/kg 2-h IV infusion, male rats, Day 7, 2 h, listed as BCV): 255 ng/mL and 189 ng/mL and 179 ng/mL | Imputed Concentration, Mean [3]: 0.00 ng/mL | Imputed Concentration, individual animals [3]: 0.00 ng/mL | Imputed Concentration, Mean [4]: 0.00 ng/mL | Imputed Concentration, individual animals [4]: 0.00 ng/mL | Imputed Concentration, Mean (brincidofovir 15 mg/kg 2-h IV infusion, female rats, Day 1, 1 h): 3470 | Imputed Concentration, individual animals (brincidofovir 15 mg/kg 2-h IV infusion, female rats, Day 1, 1 h, listed as BCV): 3030 and 3930 and 3450 | Imputed Concentration, Mean (brincidofovir 15 mg/kg 2-h IV infusion, female rats, Day 1, 2 h): 2570 | Imputed Concentration, individual animals (brincidofovir 15 mg/kg 2-h IV infusion, female rats, Day 1, 2 h, listed as BCV): 2460 and 1860 and 3380 | Imputed Concentration, Mean (brincidofovir 15 mg/kg 2-h IV infusion, female rats, Day 1, 8 h): 6.53 | Imputed Concentration, individual animals (brincidofovir 15 mg/kg 2-h IV infusion, female rats, Day 1, 8 h, listed as BCV): 5.05 and 7.97 and 6.57 | Imputed Concentration, Mean (brincidofovir 15 mg/kg 2-h IV infusion, female rats, Day 1, 24 h): 2.02 | Imputed Concentration, individual animals (brincidofovir 15 mg/kg 2-h IV infusion, female rats, Day 1, 24 h, listed as BCV): 2.32 and 1.25 and 2.48 | Imputed Concentration, Mean [5]: 0.00 | Imputed Concentration, individual animals [5]: 0.00 | Imputed Concentration, Mean (brincidofovir 15 mg/kg 2-h IV infusion, female rats, Day 7, 2 h): 1660 | Imputed Concentration, individual animals (brincidofovir 15 mg/kg 2-h IV infusion, female rats, Day 7, 2 h, listed as BCV): 2220 and 995 and 1750 | Imputed Concentration, individual animals (brincidofovir 15 mg/kg 2-h IV infusion, female rats, Day 7, 8 h, listed as BCV): 5.32 and 6.27 and 4.75 | Imputed Concentration, Mean (brincidofovir 15 mg/kg 2-h IV infusion, male rats, Day 1, 1 h): 4370 | Imputed Concentration, individual animals (brincidofovir 15 mg/kg 2-h IV infusion, male rats, Day 1, 1 h, listed as BCV): 4020 and 4030 and 5060 | Imputed Concentration, Mean (brincidofovir 15 mg/kg 2-h IV infusion, male rats, Day 1, 2 h): 2840 | Imputed Concentration, individual animals (brincidofovir 15 mg/kg 2-h IV infusion, male rats, Day 1, 2 h, listed as BCV): 2510 and 2990 and 3010 | Imputed Concentration, Mean (brincidofovir 15 mg/kg 2-h IV infusion, male rats, Day 1, 8 h): 9.59 | Imputed Concentration, individual animals (brincidofovir 15 mg/kg 2-h IV infusion, male rats, Day 1, 8 h, listed as BCV): 10.7 and 8.23 and 9.85 | Imputed Concentration, Mean (brincidofovir 15 mg/kg 2-h IV infusion, male rats, Day 1, 24 h): 1.22 | Imputed Concentration, individual animals (brincidofovir 15 mg/kg 2-h IV infusion, male rats, Day 1, 24 h, listed as BCV): 1.20 and 1.10 and 1.36 | Imputed Concentration, Mean [6]: 0.00 | Imputed Concentration, individual animals [6]: 0.00 | Imputed Concentration, Mean (brincidofovir 15 mg/kg 2-h IV infusion, male rats, Day 7, 2 h): 1910 | Imputed Concentration, individual animals (brincidofovir 15 mg/kg 2-h IV infusion, male rats, Day 7, 2 h, listed as BCV): 1640 and 1940 and 2150 | Imputed Concentration, individual animals (brincidofovir 15 mg/kg 2-h IV infusion, male rats, Day 7, 8 h, listed as BCV): 9.82 and 7.60 and 8.73
